In article PMC4581874 (PLoS ONE, 2015):

What was measured:
[1] = test system: HUVECs; assay: HUVEC viability assay (cytotoxicity); type: cell-based, human; settings: 24 hours
Protocol: HCC827 cells were purchased from the American Type Culture Collection (ATCC, Manassas, VA, USA). Cells were grown in RPMI 1640 (Welgene Inc., Daegu, Republic of Korea) supplemented with 10% fetal bovine serum (FBS) (Welgene Inc.) and 1% penicillin-streptomycin (Gibco®, Life Technologies, Carlsbad, CA, USA) in a humidified 5% CO2 atmosphere at 37°C. Human umbilical vein endothelial cells (HUVECs, ScienCell Research Laboratories, Carlsbad, CA, USA) were cultured in endothelial growth medium-2 (EGM-2; Lonza, Walkersville, MD, USA) from passages 3 to 6.
For the HUVEC viability assay, HUVECs were treated with phosphate-buffered saline (PBS) or the indicated concentrations of VEGF inhibitors in EGM-2 medium for 24 hours. After the cells were washed with PBS, they were counted using an inverted light microscope (Nikon Eclipse Ti-U; Nikon Corp., Tokyo, Japan) in 5 random fields from each well.

[2] = molecular target: T1, VEGFR-3 (Homo sapiens, UniProt P35916); assay: In vitro kinase assay, VEGFR-3; type: biochemical
T1 construct: purchased Millipore UK Ltd., Dundee, UK (now Eurofins Scientific); KinaseProfiler / IC50 Profiler service
T1 sequence (P35916 25-1363): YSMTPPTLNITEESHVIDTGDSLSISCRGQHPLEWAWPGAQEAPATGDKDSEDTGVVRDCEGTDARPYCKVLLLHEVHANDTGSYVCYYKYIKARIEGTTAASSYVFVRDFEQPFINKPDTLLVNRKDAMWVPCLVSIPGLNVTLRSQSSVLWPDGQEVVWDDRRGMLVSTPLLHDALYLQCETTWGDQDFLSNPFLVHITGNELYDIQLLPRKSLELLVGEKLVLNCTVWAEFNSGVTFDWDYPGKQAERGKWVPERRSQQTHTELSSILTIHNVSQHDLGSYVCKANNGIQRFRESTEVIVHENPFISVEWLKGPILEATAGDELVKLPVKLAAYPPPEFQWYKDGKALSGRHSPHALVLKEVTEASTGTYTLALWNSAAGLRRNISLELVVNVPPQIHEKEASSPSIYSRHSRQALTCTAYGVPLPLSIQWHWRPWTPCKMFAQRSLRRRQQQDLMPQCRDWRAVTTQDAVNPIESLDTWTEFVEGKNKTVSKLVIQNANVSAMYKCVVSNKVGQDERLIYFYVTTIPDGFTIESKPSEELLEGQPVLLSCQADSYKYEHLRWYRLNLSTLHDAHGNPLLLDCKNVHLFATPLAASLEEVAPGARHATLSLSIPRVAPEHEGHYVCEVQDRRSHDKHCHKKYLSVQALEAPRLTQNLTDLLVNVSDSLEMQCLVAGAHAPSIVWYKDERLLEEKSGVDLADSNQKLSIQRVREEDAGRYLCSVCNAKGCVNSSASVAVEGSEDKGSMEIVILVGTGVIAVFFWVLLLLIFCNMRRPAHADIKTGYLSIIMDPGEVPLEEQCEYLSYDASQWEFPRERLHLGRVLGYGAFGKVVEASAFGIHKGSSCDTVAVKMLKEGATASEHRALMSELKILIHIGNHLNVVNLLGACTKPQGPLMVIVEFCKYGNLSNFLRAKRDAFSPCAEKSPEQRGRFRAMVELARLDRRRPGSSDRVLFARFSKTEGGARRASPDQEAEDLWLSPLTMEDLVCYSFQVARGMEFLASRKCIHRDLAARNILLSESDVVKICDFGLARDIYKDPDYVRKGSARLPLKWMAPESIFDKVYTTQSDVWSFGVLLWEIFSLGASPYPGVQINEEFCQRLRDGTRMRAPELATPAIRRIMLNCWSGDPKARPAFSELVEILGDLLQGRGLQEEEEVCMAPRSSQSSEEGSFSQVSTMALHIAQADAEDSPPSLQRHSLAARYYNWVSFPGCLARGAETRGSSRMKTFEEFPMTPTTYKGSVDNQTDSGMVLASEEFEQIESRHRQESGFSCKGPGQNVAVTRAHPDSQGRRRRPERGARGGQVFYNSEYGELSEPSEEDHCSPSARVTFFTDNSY
Protocol: (§1) All kinase assays were carried out using KinaseProfiler^TM and IC50 Profiler^TM (Millipore UK Ltd., Dundee, UK. Now Eurofins Scientific, Dundee, UK). All IC50 data were presented as the mean values. The Curves obtained to determine IC50 values were shown in Supporting Information (S1 Fig).

[3] = molecular target: T2, PKCι (h) (Homo sapiens, UniProt P41743); assay: Kinase profile, PKCι; type: biochemical; settings: mean ± S.D.
T2 construct: purchased Millipore (now Eurofins) KinaseProfiler / IC50 Profiler
Protocol: as §1

[4] = molecular target: T3, PKCε (h) (Homo sapiens, UniProt Q02156); assay: Kinase profile, PKCε; type: biochemical; settings: mean ± S.D.
T3 construct: purchased Millipore (now Eurofins) KinaseProfiler / IC50 Profiler
Protocol: as §1

[5] = molecular target: T4, PKCα (h) (Homo sapiens, UniProt P17252); assay: Kinase profile, PKCα; type: biochemical; settings: mean ± S.D.
T4 construct: purchased Millipore (now Eurofins) KinaseProfiler / IC50 Profiler
Protocol: as §1

[6] = molecular target: T5, PDGFRα (Homo sapiens, UniProt P16234); assay: In vitro kinase assay, PDGFRα; type: biochemical
T5 construct: purchased Millipore UK Ltd., Dundee, UK (now Eurofins Scientific); KinaseProfiler / IC50 Profiler service
T5 sequence (P16234 24-1089): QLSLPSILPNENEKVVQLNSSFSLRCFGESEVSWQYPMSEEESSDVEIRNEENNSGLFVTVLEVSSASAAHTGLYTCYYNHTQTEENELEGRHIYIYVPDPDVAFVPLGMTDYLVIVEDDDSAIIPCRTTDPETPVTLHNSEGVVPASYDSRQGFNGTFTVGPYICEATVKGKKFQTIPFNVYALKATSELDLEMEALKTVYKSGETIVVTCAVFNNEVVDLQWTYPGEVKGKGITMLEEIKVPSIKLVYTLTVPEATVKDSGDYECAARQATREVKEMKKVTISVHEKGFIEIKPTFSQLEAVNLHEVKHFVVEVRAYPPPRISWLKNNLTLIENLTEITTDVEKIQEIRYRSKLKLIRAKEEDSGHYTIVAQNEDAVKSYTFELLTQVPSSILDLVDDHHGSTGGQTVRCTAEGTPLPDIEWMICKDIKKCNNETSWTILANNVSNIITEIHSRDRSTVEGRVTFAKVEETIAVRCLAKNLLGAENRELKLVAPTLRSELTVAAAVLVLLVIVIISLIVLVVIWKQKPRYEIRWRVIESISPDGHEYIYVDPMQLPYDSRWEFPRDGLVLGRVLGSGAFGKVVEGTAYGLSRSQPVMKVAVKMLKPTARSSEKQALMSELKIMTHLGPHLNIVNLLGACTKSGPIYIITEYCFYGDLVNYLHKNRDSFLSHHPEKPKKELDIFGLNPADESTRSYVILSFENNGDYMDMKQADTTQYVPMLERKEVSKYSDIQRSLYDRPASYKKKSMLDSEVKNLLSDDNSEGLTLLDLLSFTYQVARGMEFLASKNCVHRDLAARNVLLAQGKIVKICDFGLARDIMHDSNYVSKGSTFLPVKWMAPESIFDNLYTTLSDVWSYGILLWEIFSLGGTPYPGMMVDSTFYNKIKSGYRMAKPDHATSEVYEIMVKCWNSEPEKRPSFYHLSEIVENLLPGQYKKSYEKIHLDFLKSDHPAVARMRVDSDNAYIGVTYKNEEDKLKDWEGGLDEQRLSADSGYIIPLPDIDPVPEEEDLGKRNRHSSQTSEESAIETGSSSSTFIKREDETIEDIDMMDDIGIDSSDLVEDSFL
Protocol: as §1

[7] = molecular target: T6, CaMKIIδ (h) (Homo sapiens, UniProt Q13557); assay: Kinase profile, CaMKIIδ; type: biochemical; settings: mean ± S.D.
T6 construct: purchased Millipore (now Eurofins) KinaseProfiler / IC50 Profiler
T6 sequence (Q13557 whole entry): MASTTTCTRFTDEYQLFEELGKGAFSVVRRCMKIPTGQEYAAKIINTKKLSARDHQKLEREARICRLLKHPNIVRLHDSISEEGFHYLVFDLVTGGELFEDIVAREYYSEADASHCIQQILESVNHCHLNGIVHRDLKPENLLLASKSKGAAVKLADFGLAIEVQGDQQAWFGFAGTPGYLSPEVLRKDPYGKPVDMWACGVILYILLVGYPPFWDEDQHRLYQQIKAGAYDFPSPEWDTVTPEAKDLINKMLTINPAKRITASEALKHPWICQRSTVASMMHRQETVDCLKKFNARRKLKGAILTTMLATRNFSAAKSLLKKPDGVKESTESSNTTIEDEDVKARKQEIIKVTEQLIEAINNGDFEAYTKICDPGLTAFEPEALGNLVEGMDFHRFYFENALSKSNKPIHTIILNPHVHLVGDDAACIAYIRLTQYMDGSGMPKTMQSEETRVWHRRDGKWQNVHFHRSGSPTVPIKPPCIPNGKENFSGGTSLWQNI
Protocol: as §1

[8] = molecular target: T7, PKCγ (h) (Homo sapiens, UniProt P05129); assay: Kinase profile, PKCγ; type: biochemical; settings: mean ± S.D.
T7 construct: purchased Millipore (now Eurofins) KinaseProfiler / IC50 Profiler
Protocol: as §1

[9] = molecular target: T8, PKCβII (h) (Homo sapiens, UniProt P05771); assay: Kinase profile, PKCβII; type: biochemical; settings: mean ± S.D.
T8 construct: purchased Millipore (now Eurofins) KinaseProfiler / IC50 Profiler
T8 sequence (P05771 1-673 isoform P05771-2): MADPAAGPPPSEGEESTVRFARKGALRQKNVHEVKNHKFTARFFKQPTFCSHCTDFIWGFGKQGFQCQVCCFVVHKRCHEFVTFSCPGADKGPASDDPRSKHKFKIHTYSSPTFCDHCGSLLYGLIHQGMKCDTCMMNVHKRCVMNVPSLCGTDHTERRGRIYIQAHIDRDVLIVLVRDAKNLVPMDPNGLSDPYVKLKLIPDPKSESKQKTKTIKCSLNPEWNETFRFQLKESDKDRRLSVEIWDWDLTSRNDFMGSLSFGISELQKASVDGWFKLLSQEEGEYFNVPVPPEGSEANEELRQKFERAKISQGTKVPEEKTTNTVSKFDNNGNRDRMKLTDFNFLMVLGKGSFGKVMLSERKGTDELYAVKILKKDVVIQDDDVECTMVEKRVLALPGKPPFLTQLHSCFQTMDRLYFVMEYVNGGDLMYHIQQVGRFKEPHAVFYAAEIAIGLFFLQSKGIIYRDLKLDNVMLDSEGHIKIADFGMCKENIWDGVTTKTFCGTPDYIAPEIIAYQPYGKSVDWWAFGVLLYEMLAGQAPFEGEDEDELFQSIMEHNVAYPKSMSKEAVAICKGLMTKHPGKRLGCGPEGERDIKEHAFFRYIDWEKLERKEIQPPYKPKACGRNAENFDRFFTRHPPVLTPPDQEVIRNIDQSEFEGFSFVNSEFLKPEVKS
Protocol: as §1

[10] = molecular target: T9, CDK5/p25 (h) (Homo sapiens, UniProt Q00535); assay: Kinase profile, CDK5/p25; type: biochemical; settings: mean ± S.D.
T9 construct: purchased Millipore (now Eurofins) KinaseProfiler / IC50 Profiler
Protocol: as §1

[11] = test system: HUVECs; assay: VEGF-induced endothelial proliferation assay; type: cell-based, human; settings: VEGF 50 ng/mL, compound 1 μg/mL
Protocol: For the cell proliferation assays, cells were incubated overnight in endothelial basal media (EBM; Lonza, Walkersville, MD, USA) containing 0.5% FBS or supplemented with VEGF-A and/or VEGF inhibitors. The cells were washed with PBS and counted in 4 random microscope fields. The tube formation assay was performed by seeding cells on Matrigel-coated plates (BD Bioscience, Bedford, MA, USA) and incubating in EBM containing 0.5% FBS or supplemented with VEGF-A and/or VEGF inhibitors. After overnight incubation, tubule networks were quantified by measuring the tubule length in 4 random microscope fields. For the analysis of scratch wound migration, confluent cell monolayers grown on 6-well plates were scratched using a micropipette tip. After the plates were washed with PBS to remove dislodged cells and media, they were incubated with EBM containing 0.5% FBS or supplemented with VEGF and/or VEGF inhibitors for 8 hours. Cell migration was observed by optical microscopy and quantified by measuring the number of cells that had migrated from the wound edges.

[12] = test system: HUVECs; assay: VEGF-induced tube formation assay; type: cell-based, human; settings: VEGF 50 ng/mL, compound 1 μg/mL
Protocol: For analyzing of the antagonistic response to VEGF, tube formation, scratch wound migration, and cell proliferation assays were performed after the exposure of HUVECs to 50 ng/mL VEGF-A (R&D Systems, Minneapolis, MN), which induced a significant angiogenic response. For the cell proliferation assays, cells were incubated overnight in endothelial basal media (EBM; Lonza, Walkersville, MD, USA) containing 0.5% FBS or supplemented with VEGF-A and/or VEGF inhibitors. The cells were washed with PBS and counted in 4 random microscope fields. The tube formation assay was performed by seeding cells on Matrigel-coated plates (BD Bioscience, Bedford, MA, USA) and incubating in EBM containing 0.5% FBS or supplemented with VEGF-A and/or VEGF inhibitors. After overnight incubation, tubule networks were quantified by measuring the tubule length in 4 random microscope fields. For the analysis of scratch wound migration, confluent cell monolayers grown on 6-well plates were scratched using a micropipette tip. […] Cell migration was observed by optical microscopy and quantified by measuring the number of cells that had migrated from the wound edges.
In (A) and (B), the number of cells was expressed as the fold change with respect to the number of cells seeded at day 0. […]

[13] = molecular target: T10, CDK2/cyclin E (h) (Homo sapiens, UniProt P24941); assay: Kinase profile, CDK2/cyclin E; type: biochemical; settings: mean ± S.D.
T10 construct: purchased Millipore (now Eurofins) KinaseProfiler / IC50 Profiler
Protocol: as §1

[14] = molecular target: T11, PKA (h) (Homo sapiens, UniProt P17612); assay: Kinase profile, PKA; type: biochemical; settings: mean ± S.D.
T11 construct: purchased Millipore (now Eurofins) KinaseProfiler / IC50 Profiler
Protocol: as §1

[15] = molecular target: T12, Lyn (h) (Homo sapiens, UniProt P07948); assay: Kinase profile, Lyn; type: biochemical; settings: mean ± S.D.
T12 construct: purchased Millipore (now Eurofins) KinaseProfiler / IC50 Profiler
T12 sequence (P07948 whole entry): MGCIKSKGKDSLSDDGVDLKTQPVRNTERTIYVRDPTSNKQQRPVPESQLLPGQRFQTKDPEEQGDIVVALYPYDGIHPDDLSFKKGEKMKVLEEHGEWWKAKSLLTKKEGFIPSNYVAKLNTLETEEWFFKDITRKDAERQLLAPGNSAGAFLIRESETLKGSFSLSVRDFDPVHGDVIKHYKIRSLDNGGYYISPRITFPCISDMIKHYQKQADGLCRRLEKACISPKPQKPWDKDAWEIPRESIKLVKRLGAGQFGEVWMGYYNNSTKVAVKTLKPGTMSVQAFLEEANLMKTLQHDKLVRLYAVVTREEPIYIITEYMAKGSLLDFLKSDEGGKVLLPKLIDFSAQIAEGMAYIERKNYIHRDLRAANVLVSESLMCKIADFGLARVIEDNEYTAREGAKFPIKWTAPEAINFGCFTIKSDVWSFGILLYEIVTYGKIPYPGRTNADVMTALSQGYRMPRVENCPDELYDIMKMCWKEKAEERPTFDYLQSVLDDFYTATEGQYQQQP
Protocol: as §1

[16] = molecular target: T13, p70S6K (h) (Homo sapiens, UniProt P23443); assay: Kinase profile, p70S6K; type: biochemical; settings: mean ± S.D.
T13 construct: purchased Millipore (now Eurofins) KinaseProfiler / IC50 Profiler
T13 sequence (P23443 whole entry): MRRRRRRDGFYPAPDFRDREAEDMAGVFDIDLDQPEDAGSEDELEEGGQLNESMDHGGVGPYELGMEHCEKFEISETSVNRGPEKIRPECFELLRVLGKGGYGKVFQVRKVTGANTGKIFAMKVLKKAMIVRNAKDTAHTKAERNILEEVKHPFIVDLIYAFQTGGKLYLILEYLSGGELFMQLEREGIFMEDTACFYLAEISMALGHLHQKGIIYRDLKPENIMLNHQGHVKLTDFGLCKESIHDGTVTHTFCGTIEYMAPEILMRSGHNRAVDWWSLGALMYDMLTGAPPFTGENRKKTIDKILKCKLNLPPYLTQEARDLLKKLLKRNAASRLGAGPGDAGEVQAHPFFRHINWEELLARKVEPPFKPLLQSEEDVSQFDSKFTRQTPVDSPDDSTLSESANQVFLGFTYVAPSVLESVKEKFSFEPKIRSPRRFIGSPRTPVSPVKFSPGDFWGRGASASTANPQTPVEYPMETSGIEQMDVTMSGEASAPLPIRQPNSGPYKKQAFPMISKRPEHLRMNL
Protocol: as §1

[17] = molecular target: T14, LKB1 (h) (Homo sapiens, UniProt Q15831); assay: Kinase profile, LKB1; type: biochemical; settings: mean ± S.D.
T14 construct: purchased Millipore (now Eurofins) KinaseProfiler / IC50 Profiler
Protocol: as §1

For `Cc1ccc(Nc2nccc(N(C)c3ccc4[nH]ccc4c3)n2)cc1S(N)(=O)=O` [MKP101], the “Cytotoxicity in HUVECs” value ([1]; 1 μg/mL) was “No cytotoxicity was observed”, the “Cytotoxicity in HUVECs” value ([1]; 5 and 10 μg/mL) was “significant endothelial cytotoxicity” and the inhibition at 1 µM ([2]; 1 μM, mean ± S.D., read-out: % inhibition at 1 μM, VEGFR-3 (h)) was 98%. The IC50 ([2]; in vitro kinase assay) was 0.002 µM, the inhibition at 1 µM [3] was 5 ± 6% and the inhibition at 1 µM [4] was 2 ± 3%. For the same molecule, the inhibition at 1 µM [5] was 10 ± 1%, the inhibition at 1 µM ([6]; 1 μM, mean ± S.D., read-out: % inhibition at 1 μM, PDGFRα (h)) was 93% and the IC50 ([6]; in vitro kinase assay) was 0.162 µM. The inhibition at 1 µM [7] was 41 ± 3%, the inhibition at 1 µM [8] was 12 ± 2% and the inhibition at 1 µM [9] was 8 ± 3%. The inhibition at 1 µM [10] was 47 ± 2%, the “Effect on VEGF-induced increase in endothelial proliferation” value [11] was “significantly inhibited” and the “Effect on VEGF-induced increase in tube formation” value [12] was “significantly inhibited”. For the same molecule, the inhibition at 1 µM [13] was 8 ± 1%, the inhibition at 1 µM [14] was 7 ± 6% and the inhibition at 1 µM [15] was 98 ± 1%. The inhibition at 1 µM [16] was 20 ± 3% and the inhibition at 1 µM [17] was 0%.
